These results are taken from patent US9326539B2, “Compositions comprising dietary fat complexers and methods for their use” (Soho Flordis International Pty. Ltd., priority 2002, dated 2016).

The nature of this assay: human volunteer on high fat diet with α-cyclodextrin: weight loss and blood parameters. Type of assay: in vivo. The settings on record: one volunteer; for HDL cholesterol: baseline 0.97; for Triglycerides: baseline 2.76; for Insulin Resistance: baseline 2.85; for Cholesterol: baseline 4.76. The procedure:
The α-cyclodextrin was added to the subject's diet in a proportion of one gram Of α-cyclodextrin for every nine grams of fat that were estimated to be consumed by the subject. […] 200 days, approximately 6 months— By 6 months the subject's body weight was reduced by 32 pounds. In addition to the weight loss, within the first two weeks of the study, the subject's elevated blood pressure fell to the point where they were forced to reduce their prescribed beta-blacker by one-third. Their blood triglycerides were also assayed during this time and their blood serum triglyceride levels were decreased by 23% within the first month and 46% by the end of six months.

`OC[C@H]1O[C@@H]2O[C@H]3[C@H](O)[C@@H](O)[C@@H](O[C@H]4[C@H](O)[C@@H](O)[C@@H](O[C@H]5[C@H](O)[C@@H](O)[C@@H](O[C@H]6[C@H](O)[C@@H](O)[C@@H](O[C@H]7[C@H](O)[C@@H](O)[C@@H](O[C@H]1[C@H](O)[C@H]2O)O[C@@H]7CO)O[C@@H]6CO)O[C@@H]5CO)O[C@@H]4CO)O[C@@H]3CO` [α-cyclodextrin] yielded a body weight reduction (initial weight 267 pounds, 1 g α-cyclodextrin per 9 g fat, by 6 months) of 32 pounds. Also, where the note is “1 month”, the “Body Mass Index” value was determined as 39.17, the Hip worked out at 127 cm, the Waist stood at 124 cm and the HDL cholesterol turned out to be 1.00 mmol/L. In addition, under “1 month”, the Triglycerides stood at 2.13 mmol/L, the “Insulin Resistance” value is reported as 2.13 and the Cholesterol was determined as 4.76 mmol/L. Moreover, where the note is “6 months”, the “Body Mass Index” value is 37.27, the Hip came out at 117 cm, the Waist was determined as 117 cm and the HDL cholesterol came out at 1.11 mmol/L. Further, where the note is “6 months”, the Triglycerides was 1.50 mmol/L, the “Insulin Resistance” value turned out to be 1.35 and the Cholesterol was 4.0 mmol/L. Besides, the “decrease of blood serum triglyceride levels” value (by the end of six months) was found to be 46%. Further, the “decrease of blood serum triglyceride levels” value (within the first month) is on record as 23%. Moreover, the elevated blood pressure result (within the first two weeks) is on record as “fell”.
